From patent US11439607B2 (Paracelsus Neuroscience I, LLC, priority 2016, dated 2022) come the findings set out here.

For one experiment, the system named is CCI rats. The experiment is described as follows: Chronic constriction injury (CCI) model, von Frey paw withdrawal threshold. Type of experiment: in vivo, rat. The following applies: gabapentin 100 mg/kg p.o., 2 hours after administration. On the procedure: Peripheral nerve injury was performed according to the method of Bennett and Xie (Bennett and Xie, 1988), with paw withdrawal thresholds to Von Frey filament stimulation measured as described previously (Chaplan et al., 1994; Tal and Bennett, 1994).
In the first cohort of nerve injured rats, hindpaw mechanical hypersensitivity was evident by day 7 and maintained for the duration of the experiment (see FIG. 4A). […] Experiments were run using a simple cross-over design. Tactile hypersensitivity of rats was evaluated one day prior to drug testing. Drugs were allowed to wash out for one week at which time the mechanical hypersensitivity was reassessed. Rats were then randomly re-assigned to groups prior to the next arm of the study being run. In the final arm, tissue was collected from 3 animals from each group immediately after behavioral assessment of allodynia. Dosing of drugs, assessment of mechanical thresholds and collection of tissues were performed by individual experimenters all blinded to treatments.
All CCI data are presented as mean+/−S.E.M. and were analyzed using ANOVA followed by Fisher's PLSD post-hoc analysis (StatView, Cary, N.C.) when appropriate.

Another experiment deals with Oxaliplatin model. The experiment is described as follows: Oxaliplatin - Acetone test (reaction time). Type of experiment: in vivo, rodent. The following applies: Internal reference, Gabapentin 100 mg/kg p.o. On the procedure: (§1) Depending on the test, the percentage of activity was calculated from the mean value of the vehicle-treated animals and compared to naïve animals, control paw or cut-off value.

The next experiment deals with Carrageenan model. The experiment is described as follows: Carrageenan - Paw pressure test. Type of experiment: in vivo, rodent. The following applies: Internal reference, Indomethacin 30 mg/kg p.o. On the procedure: as §1
On the technique in general: The carrageenan paw model is a standard test of acute inflammation.

The test system of another experiment is Kaolin model. In words: Kaolin - Gait score. The format is in vivo, rodent. As to conditions: Internal reference, Indomethacin 10 mg/kg p.o. The method, then:
as §1

The subject of experiment [1] is Healthy rats. The experiment is described as follows: Healthy rats - Paw pressure test. The format is in vivo. The following applies: Internal reference, Morphine 4 mg/kg s.c. The method, then: as §1
In experiment [2] the test system is Healthy rats. In words: Healthy rats - Tail flick test. Type of experiment: in vivo. As to conditions: Internal reference, Morphine 4 mg/kg s.c. On the procedure:
as §1
On the technique in general: Hot-plate and tail-flick tests time the reaction to a heat stimulus.

The subject of a further experiment is Formalin test. In words: Formalin test - Score. As to conditions: internal reference, Morphine 4 mg/kg s.c. The format is in vivo, rodent. On the procedure:
as §1

For a further experiment, the system named is Bennett model. In words: Bennett model - Paw pressure test. The following applies: Internal reference, Morphine 4 mg/kg s.c. Type of experiment: in vivo, rodent. The method, then:
as §1

A further experiment relates to Brennan model. The experiment is described as follows: Brennan model - Electronic Von Frey test. The format is in vivo, rodent. The following applies: Internal reference, Morphine 4 mg/kg s.c. On the procedure: as §1

Take `NCC1(CC(=O)O)CCCCC1` [Gabapentin]: in the experiment with CCI rats, the “Reversal of mechanical hypersensitivity (tactile allodynia)” value is 66%. In the experiment on Oxaliplatin model, the “% of activity vs. vehicle” value was 82%.
In the case of `COc1ccc2c(c1)c(CC(=O)O)c(C)n2C(=O)c1ccc(Cl)cc1` [Indomethacin], the results for the “% of activity vs. vehicle” value in the experiment with Carrageenan model and in the experiment on Kaolin model were 100% and 58%, respectively.
For the compound `CN1CC[C@]23c4c5ccc(O)c4O[C@H]2[C@@H](O)C=C[C@H]3[C@H]1C5` [Morphine], the “% of activity vs. vehicle” value with Healthy rats [1] amounted to 69%; with Healthy rats [2], 66%; in the experiment with Formalin test (early phase), 57%; in the experiment with Formalin test (late phase), 38%; in the experiment with Bennett model, 191%; in the experiment with Brennan model, 88%.
